Experimental data published in patent US20250205188A1, “TREATMENT OR PREVENTION OF RESPIRATORY DISEASES CHARACTERISED BY, OR INVOLVING, LUNG FIBROSIS” (IMPERIAL COLLEGE INNOVATIONS LIMITED, priority 2022, published 2025).

Legend:
[1] = test system: Human lung fibroblast cells; test: RT-PCR gene expression in TGFβ fibrosis model of human lung fibroblast cells; assay type: cell-based; conditions: 10 mM for 1 hour, then 2 ng/mL TGFβ 24 hours, relative to untreated cells; for gene expression of Col1α1: FIG. 2A; for gene expression of FN1: FIG. 2B; for gene expression of CTGF: FIG. 2C
Excerpt: Primary human lung fibroblasts were isolated from lung resections of patients undergoing lung cancer surgery or lung transplantation performed after informed consent as approved by an external Research Ethics Committee (REC 15/SC0101) according to Royal Brompton Hospital protocol (Royal Brompton & Harefield NHS Foundation Trust, 2016). Fibroblasts from healthy individuals were also purchased from Lonza (Lonza, Basel, Switzerland).
Real Time PCR After treatment, the supernatant liquid was removed from cell cultures and RLT buffer containing 1% beta-mercaptoethanol was added to each well and then was frozen for later analysis. RNA extraction of cells was performed using the RNeasy Plus Mini Kit (QIAGEN), according to the manufacturer's protocol. Samples were defrosted at room temperature and centrifuged. The homogenate was transferred onto RNeasy MinElute spin columns and purified. RNA was reverse-transcribed into cDNA using the High-Capacity cDNA Reverse Transcription Kit (ThermoFisher) according to the manufacturer's instructions. Real-time PCR was performed using fast-qPCR mastermix (QIAGEN) on a Viia-7 instrument (Applied Biosciences) with Taqman primers for human genes, namely acod1, cd163, fn1, IL-1β, mmp1, mmp9 using actb (Life Technologies) as housekeeping gene.
Fibroblasts are the principal effector cell during lung fibrosis and the main source of the excessive extracellular matrix deposition seen during the disease. To explore the anti-fibrotic properties of itaconate analogues in human fibroblast cells, qPCR experiments were undertaken. Human lung fibroblast cells were seeded (10,000 cells/well) in a 48-well plate and were incubated with ICL-PO, ICL-2, ICL-3, ICL-4, ICL-6, itaconate, dimethyl itaconate, sodium itaconate and dimethyl malonate for 1 hour, after which the supernatant liquid was removed. The healthy fibroblasts were then incubated with 2 ng/mL transforming growth factor beta (TGFβ) for 24 hours in order to mimic pulmonary fibrosis. TGFβ is activated in fibrotic diseases and plays a key role in mediating fibrotic tissue. After treatment, RNA extraction of the cells was performed and 10 μg RNA per sample was reverse transcribed into cDNA. RT-PCR was performed with TaqMan primers for Col1α1, connective tissue growth factor (CTGF) and fibronectin (FN1) human genes. The results are shown in FIG. 2—(A) Gene expression of COL1A1 relative to two housekeeping genes (bactin and Beta-2-Microglobulin-averaged to make a ‘pooled’ control); (B) Gene expression of FN1 relative to housekeeping gene; and (C) Gene expression of CTGF relative to housekeeping gene.

[2] = test system: Healthy primary human lung fibroblasts; test: Seahorse glycolytic stress test (ECAR); assay type: cell-based; conditions: 0.1 mM, 1 mM and 10 mM for 1 hour, then with or without 2 ng/ml TGF-β1 24 hours; FIGS. 4 and 5
Protocol: Healthy primary human lung fibroblasts (10,000 per well) were seeded in a seahorse plate pre-coated with Cell Tak (BD Biosciences, Oxford, UK). After an overnight incubation, fibroblasts were treated with different itaconate analogues for 1 hour and they were subsequently incubated with or without 2 ng/ml TGF-β1 for 24 hours. XF medium (nonbuffered RPMI containing 2 mM glutamine, 1 mM pyruvate and 10 mM glucose, pH 7.4, Agilent, Santa Clara, USA) was used to measure Oxygen Consumption Rate (OCR) and Extracellular Acidification Rate (ECAR) with the XFp extracellular flux analyser. The Seahorse glycolytic Stress Test (Agilent, Santa Clara, USA) was utilized to measure OCR and ECAR at baseline. Healthy primary human lung fibroblasts (10,000 per well) were seeded in a seahorse plate pre-coated with Cell Tak (BD Biosciences, Oxford, UK). After an overnight incubation, fibroblasts were treated with different concentrations (0.1 mM, 1 mM and 10 mM) of the itaconate analogues, citraconate or mesaconate, for 1 hour and they were subsequently incubated with or without 2 ng/ml TGF-β1 for 24 hours. XF medium (nonbuffered RPMI containing 2 mM glutamine, 1 mM pyruvate and 10 mM glucose, pH 7.4, Agilent, Santa Clara, USA) was used to measure an Extracellular Acidification Rate (ECAR) with the XFp extracellular flux analyser for the citraconate assay (FIG. 4) or mesaconate assay (FIG. 5). […]

lung fibrosis in mice = conditions: inhaled (particularly oropharyngeal inhalation); cited from earlier work
human lung fibroblasts = conditions: exogenous itaconate added to cultures; cited from earlier work

| SMILES | gene expression of Col1α1 [1] | gene expression of FN1 [1] | gene expression of CTGF [1] | Extracellular Acidification Rate (ECAR) [2] | lung fibrosis (lung fibrosis in mice) | proliferation of human lung fibroblasts (human lung fibroblasts) | wound healing of human lung fibroblasts (human lung fibroblasts) |
| --- | --- | --- | --- | --- | --- | --- | --- |
| C=C(CC(=O)O)C(=O)N(C)C [ICL-2, Sodium 3-(dimethylcarbamovl)-3-methvlidenepropanoate] | decreased gene expression | decreased gene expression | decreased gene expression |  |  |  |  |
| C/C=C(\CC(=O)O)C(=O)O [ICL-3, (2E)-2-ethylidenebutanedioic acid] | decreased gene expression | decreased gene expression | decreased gene expression |  |  |  |  |
| C=C(CC(=O)OC(C)(C)C)C(=O)OC(C)(C)C [ICL-4, Bis(2-methyl-2-propanyl)-2-methylenesuccinate] | decreased gene expression | decreased gene expression | decreased gene expression |  |  |  |  |
| C=C(CC(=O)O)C(=O)OC [ICL-6, 3-(methoxycarbonyl)but-3-enoic acid] | decreased gene expression | decreased gene expression | decreased gene expression |  |  |  |  |
| C=C(CC(=O)N(C)C)C(=O)O [ICL-PO, 3-(dimethylcarbamoyl)-2-methvlidenepropanoic acid] | decreased gene expression | decreased gene expression | decreased gene expression |  |  |  |  |
| C/C(=C/C(=O)O)C(=O)O [citraconate] |  |  |  | concentration dependent reduction in ECAR |  |  |  |
| C=C(CC(=O)OC)C(=O)OC [dimethyl itaconate] | decreased gene expression | decreased gene expression | decreased gene expression |  |  |  |  |
| COC(=O)CC(=O)OC [dimethyl malonate, reference compound] | decreased gene expression | decreased gene expression | decreased gene expression |  |  |  |  |
| C=C(CC(=O)O)C(=O)O [itaconate, 2-methylidenebutanedioic acid, reference compound] | decreased gene expression | decreased gene expression | decreased gene expression |  | ameliorates lung fibrosis | limits | limits |
| C/C(=C\C(=O)O)C(=O)O [mesaconate] |  |  |  | concentration dependent reduction in ECAR |  |  |  |
| C=C(CC(=O)[O-])C(=O)[O-].[Na+].[Na+] [sodium itaconate, reference compound] | decreased gene expression | decreased gene expression | decreased gene expression |  |  |  |  |
